One substance from patent US10106627B2, “Process for the preparation of polymeric biosurfactants” (priority 2014, dated 2018) can be followed below.

Series [1] deals with nitric oxide (NO) in RAW 264.7 macrophages. The series is described as follows: LPS-stimulated nitric oxide (Griess reaction) in RAW 264.7 macrophages. It counts as cell-based, mouse. To be noted: 20 μg ml^−1; LPS 100 ng ml^−1 24 h; LPS alone 66.87%. A general note: The Griess reaction detects nitrite, a stable product of nitric oxide.
Procedure: After 24 h, 100 μl of culture supernatant was collected and mixed with 100 μl of Griess reagent in a 96-well plate and incubated for 15 min at room temperature. The optical density was spectroscopically measured at 540 nm using TRIAD multimode reader (Dynex Technologies, Inc., Chantilly, Va.). The experiments were run in triplicates and reported as the percentage of NO produced.
Series [2] has as its system cyclooxygenase-2 (COX-2) in RAW 264.7 cells. The series is described as follows: LPS-induced COX-2 immunoblot in RAW 264.7 cells. The series is classed as cell-based, mouse. To be noted: 10 and 50 μg ml^−1, 24 h, LPS 100 ng ml^−1.
Procedure: In independent experiments, RAW-264.7 cells were treated with Brevisan, Microsan and M-EPS-Au-NP (10 and 50 μg ml^−1 each) and then stimulated with 100 ng ml^−1 of LPS. After 24 h, the cells were washed with PBS and suspended in a lysis buffer containing 20 mM Tris, I mM EDTA, 150 mM NaCl, 1% NP-40, 0.5% sodium deoxycholate, 1 mM β-glycerophosphate, 1 mM sodium orthovanadate, 1 mM PMSF, 10 mg ml^−1 leupeptin, 20 mg ml^−1 aprotinin. The mixture was centrifuged at 10,000 rpm at 4° C. for 10 min to obtain the cell lysate. The protein content was determined by Bradford method [Bradford, M. M. (1976) Anal. Biochem. 72, 248-258]. An equal amount of total cell lysate was resolved on 12% SDS-PAGE gels and then transferred onto nitrocellulose membranes. Membranes were blocked with 5% w/v non-fat dry milk and then incubated with the primary antibodies for mouse COX-2 and β-actin with gentle shaking at 4° C. for 12 h and then incubated with peroxidase-conjugated secondary antibodies. The blots were developed using peroxidase substrates, TMB (3,3,5,5-tetramethylbenzidine)/H2O2.
The next series deals with IL-6 in RAW 264.7 cells. The experiment in a line: LPS-induced IL-6 ELISA in RAW 264.7 cells. The series is classed as cell-based, mouse. To be noted: 50 μg ml^−1; LPS 100 ng ml^−1 24 h; LPS alone 190.9. On the procedure:
The effect of Brevisan, Microsan and M-EPS-Au-NP on the release of proinflammatory cytokines, TNF-α and IL-6, was measured using ELISA kits (Biosource International, Camarillo, Calif., USA). In independent experiments, the RAW-264.7 cells were treated with different concentrations (1, 10, 50 and 100 μg ml^−1) of Brevisan, Microsan and M-EPS-Au-NP and then stimulated with 100 ng ml^−1 of LPS. The supernatants were harvested after 24 h and the concentrations of TNF-α and IL-6 was measured using an ELISA kit according to the manufacturer's instructions.
In general terms: In an ELISA, binding on a coated surface is turned into a signal by an enzyme label.

Series [3] in a line: Thermal degradation analysis (TGA/DSC). It counts as physicochemical. On the procedure: The Microsan and Brevisan polymeric biosurfactants recovered and purified in Example 3 were subjected to structural characterization. The average molecular weight (Mw) of EPS was determined by gel permeation chromatography [Agilent 1100 Series HPLC system, TOSOH Corporation, Japan, equipped with a RID and a TSK G5000PWXL gel column (7.8×300 mm) and a TSK PWXL (6.0 mm×40 mm) guard column] using dextran standards ranging from 10680 to 578500 Da (Sigma, CAS No. 9004-54-0). The Fourier transform infrared spectra (FT-IR) were recorded on the Thermo-Nicolet Nexus 670 FT-IR spectrophotometer (Thermo Fisher Scientific Inc., Madison, Wis., U.S.A.) using KBr pellets containing 1% finely ground EPS samples and the spectra was collected at a resolution of 4 cm^−1 in the wavenumber region of 400-4,000 […]. The cross-polarization/magic angle spinning (CP/MAS) ^13C NMR experiments were performed on a Varian Unity Innova spectrometer operating at 400 MHz for ^1H and 100 MHz for ^13C at room temperature. […] Thermal degradation analyses of the EPS samples were measured using a DSC 821^c (Mettler Toledo GmbH, Switzerland) interfaced with Mettler Toledo Star SW (version 8.10) software. […] All of the XPS analyses were carried out in duplicates (two independent samples of each type of EPS analyzed at different time intervals). […]

Turning to “β-D-glucuronyl-(1-2)-D-mannosyl-(1-4)-D-glucose [Microsan]”, the “LPS-stimulated NO levels after treatment” value in series [1] is reported as 20.05%. Moreover, in series [2], the “induction of COX-2 (Western blot)” value is reported as “significantly inhibited”. Further, the “IL-6 production after treatment” value in the series on IL-6 in RAW 264.7 cells was found to be 90.01 µg/mL. Also, the “thermal degradation temperature (TGA)” value in series [3] came out at 280 °C.
